Source: patent US20050165104A1, “Biocidal agents and veterinary methods” (priority 2002, published 2005)
Like-named read-outs stand apart in the source and are kept apart here. Marks after values point to notes of the source that are not given here.

Legend:
Candida albicans = experiment: Antimicrobial Diffusion Test (blood agar plate, zone of inhibition); type: cell-based
Experimental: (§1) The Antimicrobial Diffusion Test is used to determine the ability of a compound to inhibit growth of an organism. During the course of the test, each compound is treated as an unknown solution with an assigned number. After the data have been collected, the identity of the compound is assigned. In the test, a blood agar plate is inoculated with a known stock organism (fungus or bacteria). One drop of a numbered solution is applied to a freshly inoculated agar plate. A single numbered solution is applied per organism on a plate. The inoculated plate is examined on a daily basis for growth of the organism.
(§2) Areas of no microbial growth, or zones of inhibition are measured in millimeters and documented. If the plate is entirely covered with organism growth, there is no measurable zone of inhibition. After all zones of inhibition with the corresponding organisms and the solution number tested for sensitivity have been documented, each solution number is replaced by the correct solution name. The zones of inhibition are then used to establish relative in vitro resistance and sensitivity of the organism to the solution.

Beta Streptococcus = experiment: as above; type: cell-based; details: for zone of inhibition at 10000 µM / zone of inhibition at 100000 µM: Streptococcus, read-out: Inhibition, Beta Strep (zone of inhibition / relative potency); for zone of inhibition at 10000 µM: 0.01M (extracts: 0.01M total components)
Experimental: as §1, §2

Escherichia coli = experiment: as above; type: cell-based
Experimental: as §1, §2

[1] = pH of the tested solution; type: physicochemical
Aspergillus fumigatus = experiment: Antimicrobial Diffusion Test (blood agar plate, zone of inhibition); type: cell-based
Experimental: as §1, §2

Trichophyton rubrum = experiment: as above; type: cell-based
Experimental: as §1, §2

Staphylococcus aureus = experiment: as above; type: cell-based
Experimental: as §1, §2

[2] = tested on: Candida albicans, Staphylococcus aureus, Beta Streptococcus, Escherichia coli, Aspergillus fumigatus, and Trichophyton rubrum; experiment: Antimicrobial Diffusion Test, all organisms tested; type: cell-based; details: for specificity of inhibitory activities over the organisms tested (in words): summary of Table 1
Experimental: as §1, §2
Table 1 provides data comparing the efficacy of a number of different antimicrobial compounds of the present invention. Compounds were assayed at varying concentrations using the Antimicrobial Diffusion Test described above. Summary for data on the following compounds is listed: 3-n-propylphenol, 3-pentylphenol, 5-propylresorcinol, 3-isobutylphenol, 4-hexylresorcinol, phenol, phenylacetic acid, 3-hydroxoctanoic acid, a reconstituted metapleural gland secretion from Atta sexdens worker ant, a reconstituted metapleural gland secretion from Atta sexdens soldier ant, a reconstituted metapleural gland secretion from Atta cephalotes worker ant, a reconstituted metapleural gland secretion from Atta cephalotes soldier ant, metapleural gland secretion from C. deformis, Mycocide, Tineacide, and Penlac. […]

[3] = 0.1M (extracts: 0.1M total components), higher number = greater inhibition
[4] = 0.1M (extracts: 0.1M total components)
[5] = test solution 0.1M (extracts: 0.1M total components)
[6] = 0.1M (extracts: 0.1M total components), value unmarked
[7] = test solution 0.01M (extracts: 0.01M total components)
[8] = 0.01M, value marked * (footnote not given)
[9] = 0.1M (extracts: 0.1M total components), value marked ** (footnote not given)
[10] = 0.1M, value marked * (footnote not given)
[11] = 0.01M (extracts: 0.01M total components)

Structure (SMILES)	pH [1, 5]	pH [1, 7]	Inhibition, Candida Albicans (zone of inhibition / relative potency) (Candida albicans; [3])	Inhibition, E. coli (zone of inhibition / relative potency) (Escherichia coli; [4])	Inhibition, Asp fumigatus (zone of inhibition / relative potency) (Aspergillus fumigatus; [4])	zone of inhibition at 10000 µM (Beta Streptococcus)	zone of inhibition at 100000 µM (Beta Streptococcus; [4])	Inhibition, Staph aureus (zone of inhibition / relative potency) (Staphylococcus aureus; [4])	Inhibition, T. rubrum (zone of inhibition / relative potency) (Trichophyton rubrum; [8])	Inhibition, T. rubrum (zone of inhibition / relative potency) (Trichophyton rubrum; [10])	Inhibition, Candida Albicans (zone of inhibition / relative potency) (Candida albicans; [11])	other results
CCCc1cccc(O)c1 [3-n-propylphenol]	6.5	6.5	13 mm	17 mm	10 mm	–	15 mm	14 mm	12* mm	21 mm	13 mm	Inhibition, T. rubrum (zone of inhibition / relative potency) (Trichophyton rubrum; [9]): 14 mm; specificity of inhibitory activities over the organisms tested (in words) [2]: ability to inhibit growth of all organisms tested
CCCCCc1cc(O)cc(O)c1 [5-pentylresorcinol]	6.5	–	19 mm	17 mm	20 mm	–	20 mm	16 mm	–	47* mm	–	–
CCCc1cc(O)cc(O)c1 [5-propylresorcinol]	6.5	–	14 mm	15 mm	–	–	–	–	–	14* mm	–	zone of inhibition at 100000 µM (Beta Streptococcus): 14 mm
O=C(O)Cc1c[nH]c2ccccc12 [indoleacetic acid]	–	–	–	–	–	–	6 mm	–	–	–	–	–

Now from value to compound, other results behind:

pH [1, 5]	pH [1, 7]	Structure (SMILES)	Inhibition, Candida Albicans (zone of inhibition / relative potency) (Candida albicans; [3])	Inhibition, E. coli (zone of inhibition / relative potency) (Escherichia coli; [4])	Inhibition, Asp fumigatus (zone of inhibition / relative potency) (Aspergillus fumigatus; [4])	zone of inhibition at 10000 µM (Beta Streptococcus)	zone of inhibition at 100000 µM (Beta Streptococcus; [4])	Inhibition, Staph aureus (zone of inhibition / relative potency) (Staphylococcus aureus; [4])	Inhibition, T. rubrum (zone of inhibition / relative potency) (Trichophyton rubrum; [8])	Inhibition, T. rubrum (zone of inhibition / relative potency) (Trichophyton rubrum; [10])	Inhibition, Candida Albicans (zone of inhibition / relative potency) (Candida albicans; [11])	other results
6	–	CCCCCC(O)CC(=O)O (centres unmarked) [3-hydroxoctanoic acid]	12 mm	13 mm	–	–	–	–	–	–	–	Inhibition, Beta Strep (zone of inhibition / relative potency) (Beta Streptococcus; [4]): 12 mm
6	6.5	CCCCCCCC(O)CC(=O)O (centres unmarked) [3-hydroxydecanoic acid]	15 mm	13 mm	13 mm	12 mm	11 mm	12 mm	–	–	–	Inhibition, T. rubrum (zone of inhibition / relative potency) (Trichophyton rubrum; [6]): 12 mm
6	6.5	CCCCCCCCCC(O)CC(=O)O (centres unmarked) [3-hydroxydodecanoic acid]	8 mm	10 mm	7 mm	–	10 mm	9 mm	–	–	–	Inhibition, T. rubrum (zone of inhibition / relative potency) (Trichophyton rubrum; 0.01M, value unmarked): 10 mm; Inhibition, T. rubrum (zone of inhibition / relative potency) (Trichophyton rubrum; [6]): 14 mm
6.5	6.5	CCCCCc1cccc(O)c1 [3-pentylphenol]	21 mm	15 mm	25 mm	15 mm	18 mm	18 mm	16* mm	65 mm	15 mm	Inhibition, Asp fumigatus (zone of inhibition / relative potency) (Aspergillus fumigatus; 0.01M): 9 mm; inhibition of Aspergillus fumigatus growth (in words) (Aspergillus fumigatus; 0.1 M, FIG. 5): effective at inhibiting Aspergillus fumigatus growth; Inhibition, T. rubrum (zone of inhibition / relative potency) (Trichophyton rubrum; [9]): 45 mm; side-by-side comparison against Penlac 0.1M on Trichophyton rubrum (in words) (Trichophyton rubrum; 0.1M each): unexpectedly superior; Inhibition, E. coli (zone of inhibition / relative potency) (Escherichia coli; 0.01M): 16 mm; Inhibition, Staph aureus (zone of inhibition / relative potency) (Staphylococcus aureus; 0.01M): 14 mm; spectrum of effectiveness on the microorganisms tested (in words) ([2]; 0.1M, Table 1 row 3): exceptional broad spectrum effectiveness; specificity of inhibitory activities over the organisms tested (in words) [2]: ability to inhibit growth of all organisms tested
6.5	6.5	CCCCCCc1ccc(O)cc1O [4-hexylresorcinol]	20 mm	15 mm	20 mm	16 mm	17 mm	15 mm	29* mm	38* mm	19 mm	Inhibition, Asp fumigatus (zone of inhibition / relative potency) (Aspergillus fumigatus; 0.01M): 16 mm; Inhibition, E. coli (zone of inhibition / relative potency) (Escherichia coli; 0.01M): 17 mm; Inhibition, Staph aureus (zone of inhibition / relative potency) (Staphylococcus aureus; 0.01M): 16 mm
